Assay results: US11992499B2, “Quinoline derivatives for use in the treatment of inflammation diseases” (ABIVAX, priority 2018, dated 2024)
“Also recorded” adds a separate entry of the source. Like-named read-outs stand apart in the source and are kept apart here.

How the values were obtained:
[1] = tested on: STAM model of non-alcoholic steatohepatitis; format: in vivo; settings: for Liver weight (mean ± SD) / Liver-to-body weight ratio (mean ± SD): n = 8
Source text: To prepare dosing solution, Compound A and B were weighed and suspended in Vehicle which was composed of 20% of Vehicle-A1 and 80% of Vehicle-A2. Vehicle-A1 was composed of 0.5% (w/v) Carboxymethyl cellulose (CMC) 400-800 centipoises in water for injection+2.5% (w/v) Tween 80. Vehicle-A2 was composed of 0.5% (w/v) Carboxymethyl cellulose (CMC) 400-800 centipoises in water for injection. Telmisartan (Micardis®) was purchased from Boehringer Ingelheim GmbH (Germany) and dissolved in pure water.
(§1) NASH was induced in 48 male mice by a single subcutaneous injection of 200 μg streptozotocin (STZ, Sigma-Aldrich, USA) solution 2 days after birth and feeding with high fat diet (HFD, 57 kcal % fat, Cat #HFD32, CLEA Japan, Inc., Japan) after 4 weeks of age.
Compound A and B, and Telmisartan were administered orally in a volume of 10 mL/kg.
(§2) Compound A was administered at 3 dose levels of 10, 20 and 40 mg/kg once daily from 6 to 9 weeks of age. Compound B was administered at a dose of 40 mg/kg once daily from 6 to 9 weeks of age. Telmisartan was administered at a dose of 10 mg/kg once daily from 6 to 9 weeks of age.
C57BL/6 mice (14-day-pregnant female) were obtained from Japan SLC, Inc. (Japan). All animals used in the study were housed and cared for in accordance with the Japanese Pharmacological Society Guidelines for Animal Use.
Group 1: Vehicle Eight NASH mice were orally administered vehicle [20% of Vehicle-A1 and 80% of Vehicle-A2] in a volume of 10 mL/kg once daily from 6 to 9 weeks of age.
Eight NASH mice were orally administered vehicle supplemented with Compound A at a dose of 10 mg/kg once daily from 6 to 9 weeks of age.
Eight NASH mice were orally administered vehicle supplemented with Compound A at a dose of 20 mg/kg once daily from 6 to 9 weeks of age.
Eight NASH mice were orally administered vehicle supplemented with Compound A at a dose of 40 mg/kg once daily from 6 to 9 weeks of age.
Eight NASH mice were orally administered vehicle supplemented with Compound B at a dose of 40 mg/kg once daily from 6 to 9 weeks of age.
Eight NASH mice were orally administered pure water supplemented with Telmisartan at a dose of 10 mg/kg once daily from 6 to 9 weeks of age.
The viability, clinical signs and behavior were monitored daily. Body weight was recorded before the treatment. […] The animals were sacrificed at 9 weeks of age by exsanguination through direct cardiac puncture under isoflurane anesthesia (Pfizer Inc.).

[2] = tested on: STAM model of non-alcoholic steatohepatitis; experiment: STAM model of NASH: plasma ALT; format: in vivo, mice; settings: for Plasma ALT (mean ± SD): n = 8
Protocol: NASH was induced in 48 male mice by a single subcutaneous injection of 200 μg streptozotocin (STZ, Sigma-Aldrich, USA) solution 2 days after birth and feeding with high fat diet (HFD, 57 kcal % fat, Cat #HFD32, CLEA Japan, Inc., Japan) after 4 weeks of age. Compound A was administered at 3 dose levels of 10, 20 and 40 mg/kg once daily from 6 to 9 weeks of age. Compound B was administered at a dose of 40 mg/kg once daily from 6 to 9 weeks of age. Telmisartan was administered at a dose of 10 mg/kg once daily from 6 to 9 weeks of age. For plasma biochemistry, non-fasting blood was collected in polypropylene tubes with anticoagulant (Novo-Heparin, Mochida Pharmaceutical Co. Ltd., Japan) and centrifuged at 1,000×g for 15 minutes at 4° C. The supernatant was collected and stored at −80° C. until use. Plasma ALT was measured by FUJI DRI-CHEM 7000 (Fujifilm, Japan).

[3] = tested on: STAM model of non-alcoholic steatohepatitis; experiment: STAM model of NASH: liver triglyceride content; format: in vivo, mice; settings: n = 8
Protocol: as §1, §2
Liver total lipid-extracts were obtained by Folch's method (Folch J. et al., J. Biol. Chem. 1957; 226: 497). Liver samples were homogenized in chloroform-methanol (2:1, v/v) and incubated overnight at room temperature. After washing with chloroform-methanol-water (8:4:3, v/v/v), the extracts were evaporated to dryness, and dissolved in isopropanol. Liver triglyceride content was measured by Triglyceride E-test (FUJIFILM Wako Pure Chemical Corporation, Japan).

[4] = 10 mg/kg PO QD (Compound A low, Telmisartan groups)
[5] = 10 mg/kg PO QD, 6-9 wks of age (Compound A low, Telmisartan groups)
[6] = 20 mg/kg PO QD (Compound A middle group)
[7] = 20 mg/kg PO QD, 6-9 wks of age (Compound A middle group)
[8] = 40 mg/kg PO QD (Compound A high, Compound B groups)
[9] = 40 mg/kg PO QD, 6-9 wks of age (Compound A high, Compound B groups)

Structure (SMILES): FC(F)(F)Oc1ccc(Nc2ccc3cccc(Cl)c3n2)cc1 [Compound A, 8-Chloro-N-(4-(trifluoromethoxy)phenyl)quinolin-2-amine]
- Mean liver weight compared with the Vehicle group [1, 4]: significant increase
- Mean liver-to-body weight ratio compared with the Vehicle group [1, 4]: tended to increase
- Liver weight (mean ± SD) [1, 5]: 1662 ± 254 mg
- Liver-to-body weight ratio (mean ± SD) [1, 5]: 8.4 ± 1.8%
- Mean liver weight compared with the Vehicle group [1, 6]: no significant difference
- Mean liver-to-body weight ratio compared with the Vehicle group [1, 6]: tended to increase
- Liver weight (mean ± SD) [1, 7]: 1500 ± 77 mg
- Liver-to-body weight ratio (mean ± SD) [1, 7]: 7.6 ± 0.4%
- Mean liver weight compared with the Vehicle group [1, 8]: tended to increase
- Mean liver-to-body weight ratio compared with the Vehicle group [1, 8]: tended to increase
- Liver weight (mean ± SD) [1, 9]: 1654 ± 145 mg
- Liver-to-body weight ratio (mean ± SD) [1, 9]: 8.5 ± 1.1%
- Plasma ALT level compared with the Vehicle group [2, 4]: tended to increase; also recorded: increasing trend
- Plasma ALT (mean ± SD) [2, 5]: 75 ± 31 U/L
- Plasma ALT level compared with the Vehicle group [2, 6]: tended to increase; also recorded: increasing trend
- Plasma ALT (mean ± SD) [2, 7]: 91 ± 15 U/L
- Plasma ALT level compared with the Vehicle group [2, 8]: significant increase
- Plasma ALT (mean ± SD) [2, 9]: 133 ± 100 U/L
- Liver triglyceride (mean ± SD) [3, 5]: 64.9 ± 27.6 mg/g liver
- Liver triglyceride (mean ± SD) [3, 7]: 63.1 ± 21.2 mg/g liver
- Liver triglyceride (mean ± SD) [3, 9]: 66.6 ± 25.6 mg/g liver
